# According to patent US9771336B2, “Tetrazole based corrosion inhibitors” (Ecolab USA Inc., priority 2013, dated 2017):
# Like-named read-outs stand apart in the source and are kept apart here.
# Tests used:
# [1] = Copper corrosion rate with and without bleach in a cooling water environment
# [2] = tested on: Pimephales promelas; assay: Pimephales promelas 96-Hour Definitive Toxicity Test; format: in vivo; settings: 96-hour test
# Procedure: (§1) A composition of the invention including a BDTZ tetrazole component was evaluated using the Pimephales promelas 96-Hour Definitive Toxicity Test. Pimephales promelas used to initiate this test were obtained from in-house cultures and were 1 to 14 days old at test initiation. Test organisms were maintained in 100 percent control water (reconstituted moderately hard water) prior to test initiation. The 96-Hour Definitive Test was conducted using 300 to 500 milliliter (mL) disposable polypropylene containers containing 250 ml of control water or appropriate test solution. Ten test organisms were randomly introduced into each test chamber with two replicate chambers per treatment. Each Pimephales promelas test chamber was fed 0.1 mL of a concentrated suspension of less than 24-hour old live brine shrimp nauplii (Artemia sp.) several hours prior to the 48-hour testing period.
# (§2) At the 48-hour testing period, test solutions were renewed by replacing approximately 90 percent of the old solution with fresh control water or appropriate test solution. Prior to renewal of test solutions, uneaten and dead brine shrimp, along with other debris, were removed from the bottom of the test chambers. Organism survival was determined daily by enumerating live Pimephales promelas in each test chamber. Survival was defined as any body movement after gentle prodding.
# (§3) The test was conducted at a temperature of 20±1° C. under fluorescent lighting with a photoperiod of 16 hours light and 8 hours dark. Water quality measurements were performed on all control and test solutions prior to test initiation and on selected treatments daily thereafter.
# (§4) Following termination of the 96-Hour Definitive Test, No Observed Effect Concentration (NOEC) and a 96-hour LC50 with corresponding 95 percent confidence interval were calculated, where possible. The NOEC value was determined using the statistically appropriate method. The LC50 value estimate was determined by using one of the following statistical methods: graphical, Spearman-Karber, Trimmed Spearman-Karber, or Probit. The method selected for reporting test results was determined by the characteristics of the data; that is, the presence or absence of 0 and 100 percent mortality and the number of concentrations in which mortalities between 0 and 100 percent occurred. All statistical analyses were performed using the CETIS™ Version 1.8.5.4 software program.
# (§5) The reference toxicant, sodium chloride, was used to monitor the sensitivity of the test organisms and the precision of the testing procedure. Acute reference toxicant tests are performed at least monthly and the resulting LC50 values are plotted to determine if the results are within prescribed limits.
# [3] = as above; format: in vivo; settings: Pimephales promelas, in vivo, other: waterborne exposure in test solution; composition of BDTZ
# Procedure: as §1, §2, §3, §4, §5
# [4] = Solubility (turbidity) of 2% solutions at various pH; format: physicochemical; settings: 2% solution in RO water
# [5] = Mild steel corrosion rate (interaction with Cu2+); settings: FIG. 12; compared with no HDTZ
# Source text: Tetrazoles disclosed herein have a positive effect on mild steel corrosion. […] The proposed mechanism of action is suspected to be indirect: the likely interpretation is that HDTZ inactivates Cu^2+ in solution preventing the occurrence of galvanic cells on the coupon surface (lower corrosion rate), which could grow with time (stabilization of the corrosion rate).
# [6] = 3 ppm inhibitor, synthetic cooling water, 38° C., three hours
# [7] = average copper corrosion rate, inhibitor concentration 5 ppm, with bleach
# [8] = average copper corrosion rate, inhibitor concentration 5 ppm, without bleach
molecule,measurement,setting,value
"CCCCc1ccc2[nH]nnc2c1 [BBT, 5-butyl-1H-benzotriazole, reference compound]",Corrosion Rate (mpy) with Bleach (1 FRC),[1]; [7],0.0189 mpy
same,Corrosion Rate (mpy) without Bleach,[1]; [8],0.0024 mpy
"C(CCc1nnn[nH]1)Cc1nnn[nH]1 [BDTZ, 1,4-di(1H-tetrazol-5-yl)butane]",Corrosion Rate (mpy) with Bleach (1 FRC),[1]; [7],0.0841 mpy
same,Corrosion Rate (mpy) without Bleach,[1]; [8],0.0088 mpy
same,Survival (%),"[2]; composition of BDTZ, 625 mg/L as nominal",100%
same,Survival (%),"[2]; composition of BDTZ, 1,250 mg/L as nominal",100%
same,Survival (%),"[2]; composition of BDTZ, 2,500 mg/L as nominal",100%
same,Survival (%),"[2]; composition of BDTZ, 5,000 mg/L as nominal",100%
same,Survival (%),"[2]; composition of BDTZ, 10,000 mg/L as nominal",100%
same,NOEC,[2]; composition of BDTZ,"10,000 mg/L"
same,LC50 at 96 h,[3],> 10000 µg/mL
same,pH above which the solution remained clear,[4]; turbidity meter,> 5.6
"c1ccc2[nH]nnc2c1 [BZT, 1H-benzotriazole, reference compound]",Corrosion Rate (mpy) with Bleach (1 FRC),[1]; [7],0.1386 mpy
same,Corrosion Rate (mpy) without Bleach,[1]; [8],0.0032 mpy
"Cc1cc2nn[nH]c2cc1Cl [CITT, 5-methyl-6-chloro-1H-benzotriazole, reference compound]",Corrosion Rate (mpy) with Bleach (1 FRC),[1]; [7],0.0057 mpy
same,Corrosion Rate (mpy) without Bleach,[1]; [8],0.0028 mpy
"C(CCCc1nnn[nH]1)CCc1nnn[nH]1 [HDTZ, 1,6-di(1H-tetrazol-5-yl)hexane]",Corrosion Rate (mpy) with Bleach (1 FRC),[1]; [7],0.0204 mpy
same,Corrosion Rate (mpy) without Bleach,[1]; [8],0.005 mpy
same,effect on mild steel corrosion rate,[5],stabilize the corrosion rate
same,melting point,,183.75 °C
"C(CCCc1nnn[nH]1)CCCc1nnn[nH]1 [HeDTZ, 1,7-di(1H-tetrazol-5-yl)heptane]",Corrosion Rate (mpy) with Bleach (1 FRC),[1]; [7],0.027 mpy
same,Corrosion Rate (mpy) without Bleach,[1]; [8],0.009 mpy
same,melting point,,144.19 °C
"C(CCCCc1nnn[nH]1)CCCc1nnn[nH]1 [ODTZ, 1,8-di(1H-tetrazol-5-yl)octane]",% loss of inhibitor,[6]; 1 ppm ActiBrom,0.0%
same,% loss of inhibitor,[6]; 1 ppm Bleach,2.6%
same,% loss of inhibitor,[6]; 1 ppm STABREX,1.6%
same,% loss of inhibitor,[6]; 5 ppm ActiBrom,1.3%
same,% loss of inhibitor,[6]; 5 ppm Bleach,2.6%
same,% loss of inhibitor,[6]; 5 ppm STABREX,2.6%
same,Corrosion Rate (mpy) with Bleach (1 FRC),[1],0.032 mpy
same,Corrosion Rate (mpy) without Bleach,[1],0.026 mpy
"C(CCc1nnn[nH]1)CCc1nnn[nH]1 [PeDTZ, 1,5-di(1H-tetrazol-5-yl)pentane]",Corrosion Rate (mpy) with Bleach (1 FRC),[1],0.145 mpy
same,Corrosion Rate (mpy) without Bleach,[1],0.0012 mpy
"Cc1ccc2[nH]nnc2c1 [TT, 5-methyl-1H-benzotriazole, reference compound]",Corrosion Rate (mpy) with Bleach (1 FRC),[1]; [7],0.0995 mpy
same,Corrosion Rate (mpy) without Bleach,[1]; [8],0.0214 mpy
same,pH above which soluble,[4],above 11.5
same,pH to get a clear solution,[4],12.0
"hydrogenated tolyltriazole [HTT, reference compound]",Corrosion Rate (mpy) with Bleach (1 FRC),[1]; [7],0.0187 mpy
same,Corrosion Rate (mpy) without Bleach,[1]; [8],0.0051 mpy
